Structures can show the parent of a compound that is named as a salt. Where two headings read alike, the source gives them in different places.

The subject of experiment [1] is phenyl-para-quinone induced writhing. Kind of experiment: phenyl-para-quinone writhing assay in mice (analgesia). In kind it is in vivo. The note with it: for inhibition in vivo at 25 mg/kg: 25 mg/kg subcutaneous; for ED50: read-out: ED50, inhibition of phenyl-para-quinone induced writhing. The text has this:
The compounds of the invention are primarily useful as analgesic, anticonvulsant and antidepressant agents. […] Exptl. Biol. Med., 95, 729 (1953)]. Listed below in Table I is the analgesic effect of some of the compounds of the invention, expressed as percent inhibition of phenyl-para-quinone induced writhing.
In general terms: In writhing tests, fewer writhes than in controls are read as antinociception.

In experiment [2] the test system is supra maximal electroshock (extensor tonus). Nature of the experiment: supra maximal electroshock assay (anticonvulsant). As to conditions: for ED50: Mus musculus, sc, read-out: ED50, anticonvulsant effect (supra maximal electroshock). The class given is in vivo, male mice (Charles River, CD-1). A general note: The maximal electroshock test induces tonic seizures with an electrical stimulus.

Experiment [3] has as its system ptosis of tetrabenazine-induced depression. Kind of experiment: inhibition of tetrabenazine-induced depression (ptosis) in mice (antidepressant). The class given is in vivo.
Setting [4] is: subcutaneous, mice, 50% inhibition.
The mark [5] stands for this setting: Mus musculus, sc, subcutaneous, mice, 50% inhibition.

Turning to `CN(CCC[C@@]12CCCC[C@@H]1c1ccccc1O2)Cc1ccco1` (relative stereo) [cis-1,2,3,4,4a,9b-Hexahydro-4a-[3-(N-methyl-N-furfuryl)aminopropyl]dibenzofuran oxalate hydrate], the inhibition in vivo at 25 mg/kg in experiment [1] (Mus musculus, sc, mice) was determined as 61%.
In experiment [1] (Mus musculus, sc, mice), `CNCCC[C@@]12CCCC[C@@H]1c1ccccc1O2` (relative stereo) [cis-1,2,3,4,4a,9b-Hexahydro-4a-(3-methylaminopropyl)dibenzofuran] registered an inhibition in vivo at 25 mg/kg of 58%. Further, the ED50 (usually the dose at which the effect has come halfway, by size or by number of responders) amounted to 27.7 mg/kg in experiment [2] (setting [4]) and 5.9 mg/kg in experiment [3] (Mus musculus, ip, intraperitoneal, 50% inhibition).
For the molecule `CN1C(=O)CN=C(c2ccccc2)c2cc(Cl)ccc21` [Diazepam, reference compound], the “% Inhibition, anticonvulsant effect (supra maximal electroshock)” value (from here on “% Inhibition, anticonvulsant effect”) in experiment [2] (1.7 mg/kg subcutaneous, mice, standard) is 50%.
In the case of `CN(CCCc1ccccc1)CCC[C@@]12CCCC[C@@H]1c1ccccc1O2` (relative stereo) [cis-1,2,3,4,4a,9b-Hexahydro-4a-[3-(N-(3-phenylpropyl)-N-methyl)aminopropyl]dibenzofuran oxalate hydrate], the inhibition in vivo at 25 mg/kg in experiment [1] (Mus musculus, sc, mice) amounted to 37%.
As for `CN(C)C[C@@]12CCCC[C@@H]1c1ccccc1O2.Cl` (relative stereo) [Cis-1,2,3,4,4a,9b-hexahydro-4a-dimethylaminomethyldibenzofuran hydrochloride], the ED50 in experiment [1] (setting [5]) was determined as 21.7 mg/kg.
`c1ccc2c(c1)O[C@]1(CCCN3CCCCC3)CCCC[C@H]21` (relative stereo) [cis-1,2,3,4,4a,9b-hexahydro-4a-(3-piperidinopropyl)dibenzofuran oxalate] gave an inhibition in vivo at 25 mg/kg in experiment [1] (Mus musculus, sc, mice) of 64%.
Regarding `CN(C)CCC=C1c2ccccc2CCc2ccccc21` [Amitriptyline, reference compound], the “% Inhibition of the ptosis of tetrabenazine-induced depression” value in experiment [3] (2.0 mg/kg intraperitoneal, standard) is given as 50%.
With `CN(C)CCC[C@@]12CCCC[C@@H]1c1ccccc1O2.Cl` (relative stereo) [cis-4a-(Dimethylaminopropyl)-1,2,3,4,4a,9b-hexahydrodibenzofuran hydrochloride], the ED50 in experiment [1] (setting [5]) is 12.2 mg/kg; in experiment [2] (setting [4]), 28.1 mg/kg.
Molecule `CN(CCc1ccccc1)CC[C@@]12CCCC[C@@H]1c1ccccc1O2` (relative stereo) [cis-1,2,3,4,4a,9b-Hexahydro-4a-[2-(N-methyl-N-phenethyl)aminoethyl]dibenzofuran hydrochloride] registered an inhibition in vivo at 25 mg/kg in experiment [1] (Mus musculus, sc, mice) of 63%.
Turning to `CNCC[C@@]12CCCC[C@@H]1c1ccccc1O2.Cl` (relative stereo) [cis-1,2,3,4,4a,9b-Hexahydro-4a-(2-methylaminoethyl)dibenzofuran hydrochloride], the ED50 in experiment [1] (Mus musculus, sc) came to 16.2 mg/kg; in experiment [2], 41.7 mg/kg. Moreover, the “% Inhibition of the ptosis of tetrabenazine-induced depression” value in experiment [3] (20.0 mg/kg intraperitoneal) stood at 60%.
For the molecule `CCC(=O)O[C@](Cc1ccccc1)(c1ccccc1)[C@H](C)CN(C)C` [propoxyphene, reference compound], the inhibition in vivo at 3.9 mg/kg in experiment [1] (Mus musculus, sc, read-out: % Inhibition of phenyl-para-quinone induced writhing) came to 50%.
As to “cis-1,2,3,4,4a,9b-Hexahydro-4a-[2-[N-(3-phenylpropyl)-N-methylamino]ethyl]dibenzofuran oxalate hemihydrate”, the “ED50, inhibition of phenyl-para-quinone induced writhing” value in experiment [1] (setting [4]) was 7.3 mg/kg.
In experiment [1] (Mus musculus, sc, mice), `CN(C)CC[C@@]12CCCC[C@@H]1c1ccccc1O2.Cl` (relative stereo) [cis-4a-(2-Dimethylaminoethyl)-1,2,3,4,4a,9b-Hexahydrodibenzofuran hydrochloride] gave an inhibition in vivo at 25 mg/kg of 67%. The ED50 in experiment [2] (setting [4]) came to 22.4 mg/kg. Besides, the “% Inhibition of the ptosis of tetrabenazine-induced depression” value in experiment [3] (20.0 mg/kg intraperitoneal) is 70%.
For `CC(C)=CCN(C)CC[C@@]12CCCC[C@@H]1c1ccccc1O2` (relative stereo) [cis-1,2,3,4,4a,9b-Hexahydro-4a-[2-(N-(3-methyl-2-butenyl)-N-methyl)aminoethyl]dibenzofuran oxalate], in experiment [3] (20.0 mg/kg intraperitoneal), the “% Inhibition of the ptosis of tetrabenazine-induced depression” value stood at 77%.
`CN(CCC[C@@]12CCCC[C@@H]1c1ccccc1O2)CCc1ccccc1.Cl` (relative stereo) [cis-1,2,3,4,4a,9b-Hexahydro-4a-[3-(N-methyl-N-phenethylamino)propyl]dibenzofuran hydrochloride]: in experiment [1] (setting [5]), the ED50 was found to be 20.8 mg/kg. The “% Inhibition, anticonvulsant effect” value in experiment [2] (25 mg/kg subcutaneous, mice) worked out at 50%.
With `CNC1=Nc2ccc(Cl)cc2C(c2ccccc2)=[N+]([O-])C1` [Chlorodiazepoxide, reference compound], in experiment [2] (8.0 mg/kg subcutaneous, mice, standard), the “% Inhibition, anticonvulsant effect” value was found to be 50%.
In experiment [1] (Mus musculus, sc, mice), `CN(CCCOc1ccccc1)CC[C@@]12CCCC[C@@H]1c1ccccc1O2` (relative stereo) [Cis-1,2,3,4,4a,9b-hexahydro-4a-[2-{N-methyl-N-(3-phenoxypropyl)}aminoethyl]dibenzofuran oxalate] displayed an inhibition in vivo at 25 mg/kg of 65%.
`CNC[C@@]12CCCC[C@@H]1c1ccccc1O2.Cl` (relative stereo) [cis-1,2,3,4,4a,9b-Hexahydro-4a-methylaminomethyldibenzofuran hydrochloride]: the ED50 is 25.8 mg/kg in experiment [1] (setting [5]) and 22.5 mg/kg in experiment [2] (setting [4]).
